Measurements: patent US20070204353A1, “Transgenic animals and methods of monitoring hedgehog responding cells” (priority 2005, published 2007)

System: fast-dividing cells in the SVZ and SGZ
Assay: AraC infusion (mini-osmotic pump, one week) into brain of tamoxifen-marked Gli1-CreERT2;R26R mice; marker analysis of fate-mapped lacZ+ cells
Conditions: for lacZ+;GFAP+/total lacZ+ ± SD (%): end of one-week 2% AraC infusion (0 day); for lacZ+;PSA-NCAM+/total lacZ+ ± SD (%): AraC 0 day; for Dlx2 expression: after AraC treatment
From the text: For AraC treatment, two days after TM treatment, a mini-osmotic pump (model 1007D, Duret) was implanted to infuse either saline or 2% AraC (Sigma) for one week as described (Doetsch, F. et al. (1999), Proc Natl Acad Sci USA 96: 11619-11624). Brains of mice that were sacrificed at the end of AraC or control treatment were designated as day 0 samples. For long-term survival experiments, the pump was removed one week after implantation and mice were later sacrificed at the indicated survival time. The second application of AraC was done as the first AraC treatment.
Mice were perfused (4% paraformaldehyde (PFA)), processed for frozen sections, and stained with X-gal as described in the Joyner lab website (http://saturn.med.nyu.edu/research/dg/joynerlab). For immunofluorescent staining, dissected brains were fixed in 4% PFA overnight at 4° C. and 50 μm vibratome (Leica) sections were obtained. Free-floating sections were stained overnight at 4° C. with goat anti-galactosidase (1:500; Biogenesis) and one of the following antibodies: mouse anti-GFAP (1:500), anti-PSA-NCAM (1:300), anti-NeuN (1:200; Chemicon), anti-CCI (1:20, Calbiochem), anti-CNPase (1:150), anti-MBP (1:200, SMI), guinea pig anti-Olig2 (1:20,000; from B. Novitch), rat anti-NG2/AN2 (1:10; from C. Klein), and rabbit anti-GABA (1:500, Sigma). Secondary antibodies for double labeling were donkey anti-species conjugated with Alexa 488, Alexa 555 (1:500; Molecular Probes), or FITC (1:200; Jackson ImmunoResearch). Fluorescent images were captured in 1.5-μm optical sections using a confocal laser-scanning microscope (LSM 510, Zeiss) and processed with Adobe Photoshop. Orthogonal analysis was performed to confirm co-expression of two markers. Cells co-expressing lacZ and one of the various markers were counted and divided by total number of lacZ expressing cells in the indicated region. At least three sections through the SVZ and DG were analyzed from one mouse. Data from at least three mice were pooled together to determine the average and standard deviation (SD). T-test was performed to calculate the p-value and determine whether the results between two time points were different with statistical significance.
Two days after TM treatment, AraC was infused for one week into the brain of Gli1-CreER^T2; R26R mice using a mini-osmotic pump.

## Nc1ccn([C@@H]2O[C@H](CO)[C@@H](O)[C@@H]2O)c(=O)n1 [AraC, cytosine arabinoside]
DG (SGZ)
  lacZ+;GFAP+/total lacZ+ ± SD (%): 93.7±4.7%
DG
  lacZ+;PSA-NCAM+/total lacZ+ ± SD (%): 2.1 ± 3.6%
RMS
  Dlx2 expression: greatly diminished
SVZ
  Dlx2 expression: abolished
End of AraC treatment (day 0), n=3
  neuroblasts (PSA-NCAM immunoreactivity) in whole mounts of the lateral wall of the lateral ventricles: almost completely depleted
Ventral SVZ
  lacZ+;PSA-NCAM+/total lacZ+ ± SD (%): 1.6 ± 2.9%
  lacZ+;GFAP+/total lacZ+ ± SD (%): 92.2±1.0%
Within one week after AraC removal, n=5 vs control n=4
  labeled cells in the SVZ and DG versus control mice: expanded more than control mice
